Test results: PubChem BioAssay (NCI)
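How tested: cells in 96-well plates exposed to compound for 48 hours at five concentrations. TGI: concentration producing complete growth inhibition.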

How the values were obtained:
Test in all cases: NCI-60 cell line screen, 48 h
HCT-15 colon = system: HCT-15 colon
OVCAR-8 ovarian = system: OVCAR-8 ovarian
IGROV1 ovarian = system: IGROV1 ovarian
SW-620 colon = system: SW-620 colon
TK-10 renal = system: TK-10 renal
UACC-257 melanoma = system: UACC-257 melanoma
M14 melanoma = system: M14 melanoma
HCC-2998 colon = system: HCC-2998 colon
A498 renal = system: A498 renal
MALME-3M melanoma = system: MALME-3M melanoma

Structure (SMILES)	TGI (HCT-15 colon) [µM]	TGI (OVCAR-8 ovarian) [µM]	TGI (IGROV1 ovarian) [µM]	TGI (SW-620 colon) [µM]	TGI (TK-10 renal) [µM]	TGI (UACC-257 melanoma) [µM]	TGI (M14 melanoma) [µM]	TGI (HCC-2998 colon) [µM]	TGI (A498 renal) [µM]	TGI (MALME-3M melanoma) [µM]
CC[P+]1(c2ccccc2)[C@@H](C)CC[C@@H]1C	> 100	> 100	> 100	> 100	> 100	> 100	> 100	> 100	> 100	> 100
N#C/C(N)=C(\C#N)N=CNc1ccc(N)cc1	> 100	> 100	> 100	> 100	> 100	> 100	> 100	> 100	> 100	> 100
CCOC(=O)c1cc(C2CCN(c3ccccc3)C2=O)c(C(=O)/C=C(/C)N)[nH]1 (stereo not given)	> 100	> 100	> 100	> 100	> 100	> 100	> 100	> 100	> 100	35.6
NC(Cc1ncccn1)C(=O)O (stereo not given)	> 100	> 100	> 100	> 100	> 100	> 100	> 100	> 100	> 100	> 100
Cc1cccc2c(N)c3cccc(C(=O)NCC[N+]4(Cc5ccc([N+](=O)[O-])cc5)CCOCC4)c3nc12	> 100	> 100	> 100	> 100	> 100	> 100	> 100	60.5	> 100	> 100
Nc1c2c(nc3ccccc13)-c1ccccc1NCCC2	> 100	> 100	> 100	> 100	49.6	28.3	33.3	27	55.5	32.9
O=C(O)c1ccc(Nc2nc3cc(C(F)(F)F)ccc3n3cccc23)cc1	> 100	> 100	> 100	> 100	> 100	71.6	80.5	44.6	> 100	> 100
CN(C(=O)Cc1cc(Cl)c(Cl)cc1NC(=O)CN)[C@H]1CCCC[C@@H]1N1CCCC1	> 100	> 100	> 100	> 100	> 100	33.9	33.5	31.6	51.2	36.1
CC(C)(C)OC(=O)Cn1ncn(NC(=O)Cc2ccccc2)c1=O	> 10	> 10	> 10	> 10	> 10	> 10	> 10	> 10	> 10	> 10
Cc1ccc2[nH]c3[nH]c(=S)[nH]c(=O)c3c2c1	> 100	> 100	> 100	> 100	> 100	> 100	> 100	> 100	> 100	> 100
CC(C)(C)C1=CC(=C2C=Cc3ccccc3O2)C=C(C(C)(C)C)C1=O	19.3	> 51.8	> 52.8	13.9	16.5	13.2	10.6	2.99	16.4	14.5
CCOC(=O)c1c(N2CCCC2)ncn(C)c1=S	> 100	> 100	> 100	> 100	> 100	> 100	> 100	> 100	> 100	> 100
COC(=O)/C=C(\S/C=C(/c1ccccc1)N1CCn2c(C(=O)c3ccccc3)c(C(=O)OC)c(C(=O)OC)c21)C(=O)OC	6.7	3.21	> 10	2.03	5.61	9.21	5.83	> 10	> 10	4.81
CC(C)/C(=N\[N+](C)(C)C)c1ccccc1	> 100	> 100	> 100	> 100	> 100	> 100	> 100	> 100	> 100	> 100
COc1c2c(cc3c1C1(O)Cc4ccc5c(c4C[N+]1(C)CC3)OCO5)OCO2 (stereo not given)	> 100	> 100	> 100	> 100	> 100	> 100	> 100	> 100	> 100	> 100
COC(=O)/C=C\C(C#N)(C#N)N=Cc1sccc1C	4.57	8.69	29	3.88	4.12	23.3	5.48	28.6	27.9	11.3
CSc1c(CC(=O)Nc2ccc(Cl)cc2)n(Cc2ccccc2)c2ccccc12	> 100	41	> 100	> 100	57.4	> 100	> 100	88	25.9	> 100
O=[N+]([O-])/C(C(Cl)=C(Cl)Cl)=C(\N1CCCCC1)n1nnc2ccccc21	39.1	42.6	34.1	39.1	35.5	37.2	32.5	26.2	39.1	39.6

Structure (SMILES)	TGI (HCT-15 colon) [µM]	TGI (OVCAR-8 ovarian) [µM]	TGI (IGROV1 ovarian) [µM]	TGI (SW-620 colon) [µM]	TGI (TK-10 renal) [µM]	TGI (UACC-257 melanoma) [µM]	TGI (M14 melanoma) [µM]	TGI (HCC-2998 colon) [µM]	TGI (A498 renal) [µM]	TGI (MALME-3M melanoma) [µM]
O=C(NNS(=O)(=O)c1ccccc1)c1cccnc1	> 100	> 100	> 100	> 100	> 100	> 100	> 100	> 100	> 100	> 100
O=C(Nc1cccc2ccccc12)c1ccccc1	> 100	> 100	> 100	> 100	> 100	> 100	> 100	> 100	> 100	> 100
CC(CN(C)C)C(=O)c1ccccc1 (stereo not given)	33.4	> 91.2	> 100	27	> 100	> 84.7	> 55	63	> 76.5	> 61.1
O=C(Nc1sccc1S(=O)(=O)c1ccccc1)c1ccccc1	> 100	> 100	> 100	> 100	> 100	> 100	> 100	> 100	> 100	> 100
COc1ccc(-n2c(=O)n(-c3ccccc3)c(=O)n2-c2ccc(OC)cc2)cc1	> 100	> 100	> 100	> 100	> 100	> 100	> 100	> 100	> 100	> 100
CC1CN=C(c2cccc(-c3nc(-c4cccc(C5=NCC(C)N5)c4)nc(N(C)C)n3)c2)N1 (stereo not given)	24.7	11.6	18.4	3.72	9.76	11	13	2.39	5.99	14.8
C=CCc1cc(C(Cc2ccccc2)NC(C)C)cc(OCc2ccccc2)c1OCc1ccccc1 (stereo not given)	30.7	31.5	29.9	32.5	30.8	34.4	28.8	26.7	29.2	28.9
OC12c3ccccc3C3CCC4(OCCO4)C3C1c1ccccc12 (stereo not given)	> 100	> 100	> 100	> 100	> 100	> 100	> 100	> 100	> 100	> 100
CC(C)(C)OC(=O)CN1CCN(CC(=O)N2CCN(C(=O)OCc3ccccc3)CC2)CCN(CC(=O)OC(C)(C)C)CCN(CC(=O)N2CCN(C(=O)OCc3ccccc3)CC2)CC1	19.1	16.8	2.65	8.5	15.9	5.92	14.3	6.55	35.7	7.94
O=S(=O)(/N=C(\NO)Nc1ccc(Cl)cc1)c1ccccc1	> 100	> 75	62.4	> 100	> 61.6	26.6	48.6	22	27.3	22.5
COc1ccc2c3c1OC1C34CCN(C)C(C2)C4=CC(I)C1(OC)OC (stereo not given)	27.8	16.1	22.2	20.1	27.8	26.9	29.6	21.9	56.7	21.9
COc1ccccc1NCc1cccc2c(=O)c3ccc(Cl)cc3oc12	> 100	> 100	> 100	> 100	> 100	> 100	> 100	> 100	> 100	> 100
CCN(CC)CCCNc1[nH]ncc2c(C)c3nc4ccc(OC)cc4c3cc12	36.3	2.01	2.91	1.58	9.16	7.18	3.26	2.33	6.35	2.36
C=CCCCCOC1C=CC(O)C(CO)O1 (stereo not given)	> 100	> 100	> 100	> 100	> 100	> 100	> 100	> 100	> 100	> 100
C(=Nc1ccc(-c2nc3ccccc3[nH]2)cc1)c1ccco1	> 100	> 100	> 100	> 100	> 100	> 100	> 100	> 100	> 100	> 100
COc1cc(NC=C2C(=O)OC(C)(C)OC2=O)c(OC)c(C)c1OC	> 100	> 100	> 100	> 100	> 100	> 100	> 100	> 100	> 100	> 100
Cc1ccc(S(=O)(=O)N/N=C2/CC3CCC4CC2CC34)cc1 (stereo not given)	> 100	> 100	> 100	> 100	> 100	> 100	> 100	> 100	> 100	> 100
